Assay results: the supplement of paper PMC11061612

Assays:
[1] = tested on: C-4-I (Cervical Carcinoma); assay: Bliss excess, mean over the matrix (fraction); higher = more synergy
Summary of the method: (§1)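 Bliss excess equals the observed combination effect minus the expected value EA + EB − EA·EB, where EA and EB are the effects of each agent alone. Combination Emax is the second-highest inhibition within the matrix. Inhibition was scaled from CellTiter-Glo 2.0 luminescence, with 0 set by vehicle wells and 1 by blank wells, after 72 hours of two-drug dosing of cells plated in 1536-well plates.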

[2] = tested on: JVM-3 (B-Cell Non-Hodgkin's Lymphoma); assay: as above
Summary of the method: as §1

[3] = tested on: KMOE-2 (Acute Myeloid Leukemia); assay: as above
Summary of the method: as §1

[4] = tested on: NEC8 (Other Solid Carcinomas); assay: as above
Summary of the method: as §1

[5] = tested on: OE19 (Esophageal Adenocarcinoma); assay: as above
Summary of the method: as §1

[6] = tested on: OVCAR-4 (Ovarian Carcinoma); assay: as above
Summary of the method: as §1

PWR-1E (Non-Cancerous) = assay: as above
Summary of the method: as §1

[7] = tested on: SCC-15 (Oral Cavity Carcinoma); assay: as above
Summary of the method: as §1

[8] = tested on: SU8686 (Pancreatic Carcinoma); assay: as above
Summary of the method: as §1

[9] = tested on: VA-ES-BJ (Other Solid Carcinomas); assay: as above
Summary of the method: as §1

[10] = tested on: AMO-1 (Plasma Cell Myeloma); assay: combination Emax (second highest fraction inhibited in the dose matrix, 72 h); higher = more inhibition; extreme values may be limits of the assay
Summary of the method: as §1

[11] = tested on: Ca9-22 (Head and Neck Carcinoma); assay: as above
Summary of the method: as §1

EW-24 (Ewing's Sarcoma) = assay: as above
Summary of the method: as §1

[12] = tested on: KYSE-450 (Esophageal Squamous Cell Carcinoma); assay: as above
Summary of the method: as §1

[13] = tested on: LU-65 (Non-Small Cell Lung Carcinoma); assay: as above
Summary of the method: as §1

[14] = tested on: MIA-PaCa-2 (Pancreatic Carcinoma); assay: as above
Summary of the method: as §1

[15] = tested on: NCI-H727 (Other Solid Carcinomas); assay: as above
Summary of the method: as §1

[16] = tested on: RF-48 (B-Cell Non-Hodgkin's Lymphoma); assay: as above
Summary of the method: as §1

[17] = tested on: SW13 (Other Solid Carcinomas); assay: as above
Summary of the method: as §1

YH-13 (Glioblastoma) = assay: as above
Summary of the method: as §1

| SMILES | Bliss excess [1] | Bliss excess [2] | Bliss excess [3] | Bliss excess [4] | Bliss excess [5] | Bliss excess [6] | Bliss excess (PWR-1E (Non-Cancerous)) | Bliss excess [7] | Bliss excess [8] | Bliss excess [9] | combination Emax [10] | combination Emax [11] | combination Emax (EW-24 (Ewing's Sarcoma)) | combination Emax [12] | combination Emax [13] | combination Emax [14] | combination Emax [15] | combination Emax [16] | combination Emax [17] | combination Emax (YH-13 (Glioblastoma)) |
| --- | --- | --- | --- | --- | --- | --- | --- | --- | --- | --- | --- | --- | --- | --- | --- | --- | --- | --- | --- | --- |
| CN(CCO)CC[C@H](CSc1ccccc1)Nc1ccc(S(=O)(=O)NC(=O)c2ccc(N3CCC([C@@H](O)c4ccccc4-c4ccc(Cl)cc4)CC3)cc2)cc1S(=O)(=O)C(F)(F)F [AZD4320] + C1CN(CCC1(C(=O)N[C@@H](CCO)C2=CC=C(C=C2)Cl)N)C3=NC=NC4=C3C=CN4 [Capivasertib] (first compound max 1 µM, 7x7, partner max 3 µM) | -0.0101 | -0.0162 | -0.0435 | -0.0356 | -0.0479 | -0.0417 | -0.0067 | -0.0606 | -0.0385 | -0.0376 | 0.317 | 0.301 | 0.869 | 0.199 | 0.612 | 0.133 | 0.484 | 0.817 | 0.138 | 0.266 |
| Cc1cc2ncnn2cc1Nc1ncc2c(n1)n(C1CCOCC1)c(=O)n2C [AZD7648] + CN(C)CCCOc1ccc(-c2ccc3ncc4c(c3c2)n(C2CCOCC2)c(=O)n4C)cn1 [AZD0156] (first compound max 10 µM, 7x7, partner max 1 µM) | 0.0099 | -0.0297 | 0.0226 | -0.0007 | 0.0583 | -0.0126 | 0.0532 | 0.0215 | -0.0144 | 0.0248 | 0.431 | 0.226 | 0.364 | 0.252 | 0.334 | 0.401 | 0.294 | 0.349 | 0.39 | 0.345 |
| CN(CCO)CC[C@H](CSc1ccccc1)Nc1ccc(S(=O)(=O)NC(=O)c2ccc(N3CCC([C@@H](O)c4ccccc4-c4ccc(Cl)cc4)CC3)cc2)cc1S(=O)(=O)C(F)(F)F [AZD4320] + Cc1cc2ncnn2cc1Nc1ncc2c(n1)n(C1CCOCC1)c(=O)n2C [AZD7648] (first compound max 1 µM, 7x7, partner max 10 µM) | -0.0082 | -0.0214 | -0.0058 | 0.0104 | -0.0219 | -0.0412 | -0.0352 | -0.0152 | -0.0355 | -0.0364 | 0.216 | 0.163 | 0.851 | 0.111 | 0.494 | 0.178 | 0.198 | 0.809 | 0.193 | 0.227 |
| Cc1cc2ncnn2cc1Nc1ncc2c(n1)n(C1CCOCC1)c(=O)n2C [AZD7648] + C=CCn1c(=O)c2cnc(Nc3ccc(N4CCN(C)CC4)cc3)nc2n1-c1cccc(C(C)(C)O)n1 [AZD1775] (first compound max 10 µM, partner max 1 µM) | -0.015 | -0.0686 | -0.0329 | 0.0004 | -0.0099 | -0.0108 | 0.0256 | 0.0938 | -0.0542 | -0.008 | 0.755 | 0.734 | 0.458 | 0.638 | 0.692 | 0.558 | 0.351 | 0.532 | 0.329 | 0.449 |
| Cc1cc2ncnn2cc1Nc1ncc2c(n1)n(C1CCOCC1)c(=O)n2C [AZD7648] + CCN(CCO)CCCOc1ccc2c(Nc3cc(CC(=O)Nc4cccc(F)c4)[nH]n3)ncnc2c1 [AZD2811] (first compound max 10 µM, 7x7, partner max 1 µM) | 0.048 | 0.0791 | 0.0325 | -0.0082 | 0.0151 | -0.0035 | 0.0299 | 0.071 | -0.0135 | -0.0034 | 0.469 | 0.3 | 0.45 | 0.343 | 0.37 | 0.516 | 0.287 | 0.303 | 0.506 | 0.482 |
| CN(CCO)CC[C@H](CSc1ccccc1)Nc1ccc(S(=O)(=O)NC(=O)c2ccc(N3CCC([C@@H](O)c4ccccc4-c4ccc(Cl)cc4)CC3)cc2)cc1S(=O)(=O)C(F)(F)F [AZD4320] + C[C@@H]1COCCN1C2=NC(=NC(=C2)C3(CC3)[S@](=N)(=O)C)C4=C5C=CNC5=NC=C4 [AZD6738] (first compound max 1 µM, 7x7, partner max 10 µM) | 0.0036 | -0.027 | -0.0399 | -0.0089 | -0.0789 | -0.0392 | -0.0313 | 0.0475 | -0.0222 | -0.012 | 0.826 | 0.969 | 0.954 | 0.547 | 0.781 | 0.632 | 0.695 | 0.917 | 0.405 | 0.568 |
| CN(CCO)CC[C@H](CSc1ccccc1)Nc1ccc(S(=O)(=O)NC(=O)c2ccc(N3CCC([C@@H](O)c4ccccc4-c4ccc(Cl)cc4)CC3)cc2)cc1S(=O)(=O)C(F)(F)F [AZD4320] + C=CCn1c(=O)c2cnc(Nc3ccc(N4CCN(C)CC4)cc3)nc2n1-c1cccc(C(C)(C)O)n1 [AZD1775] (first compound max 1 µM, partner max 1 µM) | 0.0656 | -0.101 | 0.0656 | 0.0272 | 0.0072 | -0.0068 | -0.0111 | 0.0336 | -0.0598 | 0.006 | 0.732 | 0.851 | 0.913 | 0.64 | 0.763 | 0.6 | 0.515 | 0.885 | 0.167 | 0.449 |
| CN(CCO)CC[C@H](CSc1ccccc1)Nc1ccc(S(=O)(=O)NC(=O)c2ccc(N3CCC([C@@H](O)c4ccccc4-c4ccc(Cl)cc4)CC3)cc2)cc1S(=O)(=O)C(F)(F)F [AZD4320] + C[C@@H](Nc1cc(F)cc(F)c1)c1cc(C(=O)N(C)C)cc2c(=O)cc(N3CCOCC3)oc12 [AZD8186] (first compound max 1 µM, 7x7, partner max 3 µM) | 0.0681 | 0.0456 | 0.0407 | 0.0171 | 0.0201 | 0.0154 | -0.0097 | -0.0179 | -0.0031 | 0.0393 | 0.244 | 0.648 | 0.921 | 0.33 | 0.483 | 0.444 | 0.378 | 0.959 | 0.592 | 0.694 |
| Cc1cc2ncnn2cc1Nc1ncc2c(n1)n(C1CCOCC1)c(=O)n2C [AZD7648] + C[C@@H]1COCCN1C2=NC(=NC(=C2)C3(CC3)[S@](=N)(=O)C)C4=C5C=CNC5=NC=C4 [AZD6738] (first compound max 10 µM, 7x7, partner max 10 µM) | 0.0255 | 0.0108 | 0.0035 | 0.0119 | -0.0607 | -0.0053 | -0.109 | 0.0975 | -0.0289 | -0.0099 | 0.862 | 0.919 | 0.61 | 0.593 | 0.656 | 0.592 | 0.545 | 0.528 | 0.499 | 0.656 |
| COc1cc2c(cc1OCCCCCOc1cc3c(cc1OC)C(=O)N1C=C(C)C[C@H]1C=N3)N=C[C@@H]1CC(C)=CN1C2=O [SG3199] + O=C(c1cc(Cc2n[nH]c(=O)c3ccccc23)ccc1F)N1CCN(C(=O)C2CC2)CC1 [Olaparib] (first compound max 0.001 µM, 7x7, partner max 10 µM) | -0.012 | -0.0278 | -0.0283 | 0.0376 | 0.0098 | -0.0193 | -0.0258 | -0.03 | -0.0388 | 0.0099 | 0.0932 | 0.0924 | 0.196 | 0.0761 | 0.24 | 0.168 | 0.24 | 0.266 | 0.0899 | 0.16 |
